What was measured:
Assay type in all cases: cell-based, human
786-0 cells = assay: Apoptosis in 786-O cells
Protocol: Cell viability was determined by trypan blue exclusion. After various treatments, cells were harvested, washed, and treated with trypan blue at a concentration of 0.4% w/v. After 10 min, trypan blue uptake (dead cells) was determined by counting on a hemocytometer. […] The effect of honokiol on cell viability and cleavage of the caspase 3 substrate poly-(ADP-ribose) polymerase (“PARP”)—an indicator of apoptotic cell death—was examined in the MDA-MB-231 and 786-0 cells. The effect of honokiol on cell viability and PARP cleavage in 0.5% serum was examined after 4 hr and 24 hr honokiol treatment and in 10% serum after 24 hr honokiol treatment in the MDA-MB-231 cells.

HIF2α = HIF2α expression in 786-O cells (Western blot); details: 0.5% serum, 4 hr, honokiol 20 μM, 1-BtOH 0.8%
Protocol: In FIG. 15B, 786-O cells were plated and then shifted to media containing 0.5% serum 24 hr later. 18 hr later, the cells were treated with 1-Bt0H (0.8%), honokiol (Hon) (20 μM), and t-BtOH (0.8%) as indicated. Cell lysates were prepared 4 hr later and examined for HIF2α and actin expression by Western lot analysis. The experiment shown is representative of two independent experiments.
Extraction of proteins from cultured cells and Western blot analysis of extracted proteins was performed using the ECL system (Amersham) as described previously (Chen et al., “Alternative Phospholipase D/mTOR Survival Signal in Human Breast Cancer Cells,” Oncogene 24:672-9 (2005), which is hereby incorporated by reference in its entirety).
The effect of honokiol on HIF2α expression was examined in these cells.

T24 cells = assay: Cell viability and PARP cleavage in T24 cells; details: honokiol 20 μM, 0.5% serum
Protocol: In FIG. 17A, T24 and Calu1 cells (obtained from the American Type Culture Collection) were plated in DMEM containing 10% serum for 48 hr and then shifted to either 10% serum or 0.5% serum overnight as indicated. Honokiol (20 μM) or control ethanol was then added for 4 hr as indicated. [^3H]-Myristate was added with the honokiol. After 4 hr, BtOH (0.7%) was added for 20 min, at which time the cells were harvested and the level of phosphatidyl-BtOH (P-Bt) was determined as in FIGS. 12A-C. The experiments shown are representative of at least two independent experiments. In FIG. 17B, T24 and Calu-1 cells were plated in DMEM with 10% serum for 48 hr then changed to DMEM containing either 10% or 0.5% serum overnight as indicated. Honokiol (20 μM) or control ethanol was then added either at the time of changing media (24 hr), or 4 hr before harvesting as in FIGS. 14A-E, at which time the cells were examined for cell viability or PARD cleavage. […]
Cell viability was determined by trypan blue exclusion. […] After 10 min, trypan blue uptake (dead cells) was determined by counting on a hemocytometer. Apoptosis was evaluated by examination of cleavage of the caspase 3 substrate PARP as described previously (Chen et al., “Alternative Phospholipase D/mTOR Survival Signal in Human Breast Cancer Cells,” Oncogene 24:672-9 (2005), which is hereby incorporated by reference in its entirety). […]

Q: `C=CCc1ccc(O)c(-c2ccc(O)c(CC=C)c2)c1` [honokiol, Honokiol] was tested. Which apoptosis (786-0 cells) did it give?
A: induced apoptosis

Q: And the HIF2α expression (HIF2α)?
A: suppresses

Q: And the PARP cleavage (T24 cells)?
A: induced

Q: What about the cell death (T24 cells) of the same compound?
A: induced
